Drawing on US20220242879A1, “FUSED HETEROCYCLE DERIVATIVES” (Janssen Sciences Ireland Unlimited Company, priority 2019, published 2022), this text covers EC50 and CC50 for three compounds.

In general, pEC50 refers to −log10 of the EC50, conventionally taken in molar units. For orientation: CC50 means the concentration that lowers cell viability or growth by half.

The test system of data set [1] is HBV. The experiment in a line: HBV replication inhibition assay (BDNA assay), HepG2.2.15 cells. It counts as cell-based, Hepatitis B virus. The following applies: 6 days, HBV DNA in supernatant by branched DNA QuantiGene. The method, then:
HBV replication inhibition by the disclosed compounds were determined in cells infected or transfected with HBV or cells with stably integrated HBV, such as HepG2.2.15 cells (Sells et al. 1987). In this example, HepG2.2.15 cells were maintained in cell culture medium containing 10% fetal bovine serum (FBS), Geneticin, L-glutamine, penicillin and streptomycin. HepG2.2.15 cells were seeded in 96-well plates at a density of 40,000 cells/well and were treated with serially diluted compounds at a final DMSO concentration of 0.5% either alone or in combination by adding drugs in a checker box format. […] HBV DNA was denatured by addition of 0.2 M NaOH and detected using a branched DNA (BDNA) QuantiGene assay kit according to manufacturer recommendation (Affymetrix). HBV DNA levels were also quantified using qPCR, based on amplification of encapsidated HBV DNA extraction with QuickExtraction Solution (Epicentre Biotechnologies) and amplification of HBV DNA using HBV specific PCR probes that can hybridize to HBV DNA and a fluorescently labeled probe for quantitation. In addition, cell viability of HepG2.2.15 cells incubated with test compounds alone or in combination was determined by using CellTitre-Glo reagent according to the manufacturer protocol (Promega). […]

Another data set concerns HepG2.117 cells. The experiment in a line: Cytotoxicity, ATPlite Luminescence Assay. It counts as cell-based, human. The following applies: mean value; cells incubated for 3 days, viability by ATPlite; read-out: TOX-HepC2.117 CC50. On the procedure: Cytotoxicity of the compounds was tested using HepG2 or HepG2.117 cells, incubated for 3 days in the presence of compounds. The viability of the cells was assessed using the PERKIN ELMER ATPlite Luminescence Assay System.”
On the technique in general: In ATP-based viability assays light output follows the ATP content of the culture.

In data set [2] the test system is HBV. The data set is described as follows: Anti-HBV activity, HepG2.117 cell line, intracellular HBV DNA by real-time PCR. It counts as cell-based, Hepatitis B virus. The following applies: mean value; HepG2.117 cells, 3 days of treatment, intracellular HBV DNA; read-out: HBV-AVE-HepG2.117 EC50. On the procedure: The anti HBV activity was measured using the HepG2.117 cell line, a stable, inducibly HBV producing cell line, which replicates HBV in the absence of doxicycline (Tet-off system). The HepG2 cell line is available from ATCC® under number HB-8065. Transfection of the HepG2 cell line can be as described in Sun and Nassal 2006 Journal of Hepatology 45 (2006) 636-645 “Stable HepG2- and Huh7-based human hepatoma cell lines for efficient regulated expression of infectious hepatitis B virus”.
For the antiviral assay, HBV replication was induced, followed by a treatment with serially diluted compound in 96-well plates. After 3 days of treatment, the antiviral activity was determined by, quantification of intracellular HBV DNA using real-time PCR and an HBV specific primer set and probe.
(In qPCR the cycle at which signal appears reflects the starting amount.)

pEC50: −log10 of the molar value. A value given as a limit tells only on which side of the number the result lay.

On to `N#Cc1cc(NC(=O)N2CCc3nn4c(c3C2)-c2nocc2CC(COCC(F)F)C4)ccc1F` (single isomer, unassigned) [Example 5a, (5S*)-N-3-Cyano-4-fluorophenyl)-5-(2,2-difluoroethoxy)methyl)-5,6,9,10-tetrahydro-4H-isoxazolo[3,4-c]pyrido[4′,3′:3,4]pyrazolo[1,5-a]azepine-11(12H)-carboxamide], for which the pEC50 with HBV [1] was 7.09.

Regarding `CNC(=O)[C@@H]1Cc2conc2-c2c3c(nn2C1)C[C@@H](C)N(C(=O)c1ccc(Cl)c(Cl)c1)C3` (single isomer, unassigned) [Compound 47], in the data set on HepG2.117 cells, the CC50 is greater than 50000 nM. Also, the negative logarithm of the EC50 (pEC50) with HBV [2] was 6.58.

As to `N#Cc1cc(NC(=O)N2CCc3nn4c(c3C2)-c2nocc2CC(COCC(F)F)C4)ccc1F` (single isomer, unassigned) [Example 7a, (5R*)-N-(3-Cyano-4-fluorophenyl)-5-((2,2-difluoroethoxy)methyl)-5,6,9,10-tetrahydro-4H-isoxazolo[3,4-c]pyrido[4′,3′:3,4]pyrazolo[1,5-a]azepine-11(12H)-carboxamide], the negative logarithm of the EC50 (pEC50) in the data set on HBV [1] is 7.68.
